{"source": "paper PMC12365674", "about": "“Diverse metabolites with anti-psoriasis potential from different fermentations of the fungicolous fungus Xylarialongipes HFG1018” (IMA Fungus, 2025)", "key": {"[1]": {"tested_on": "HaCaT cells", "test": "Antiproliferative activity against HaCaT cells (CCK-8)", "format": "cell-based", "conditions": "Homo sapiens, HaCaT, read-out: IC50 against the proliferation of HaCaT cells", "description": "(§1) As previously described, the immunosuppressive activity, lymphocyte viability, and antiproliferative activity against HaCaT cells were evaluated using the CCK-8 method ([Zhao et al. 2023], [2024]).\n(§2) In the immunosuppressive and lymphocyte viability, the primary tested concentration of all compounds was 20.0 μM, and dexamethasone (Dex) (c = 2.0 μM) was used as a positive control. In the antiproliferative activity against HaCaT cells, the primary tested concentration of all compounds was 40 μM, and the positive control was methotrexate (MTX) (c = 40.0 μM). When the inhibition rates are greater than 50%, the IC50 values of active compounds will be further tested and calculated. All experiments were performed in triplicate."}, "[2]": {"tested_on": "ConA-induced T lymphocytes", "test": "Anti-proliferative activity against ConA-induced T lymphocytes (CCK-8)", "format": "cell-based", "conditions": "Mus musculus, T-lymphocyte; for IC50: induced proliferation of T lymphocytes (ConA), CCK-8, read-out: T cells IC50", "description": "as §1, §2"}, "[3]": {"tested_on": "LPS-induced B lymphocytes", "test": "Anti-proliferative activity against LPS-induced B lymphocytes (CCK-8)", "format": "cell-based, mouse", "conditions": "Mus musculus, Lymphocyte; for IC50: induced proliferation of B lymphocytes (LPS), CCK-8, read-out: B cells IC50", "description": "as §1, §2"}, "[4]": {"test": "Lymphocyte viability (CCK-8)", "format": "cell-based, mouse", "conditions": "mouse, lymphocytes; lymphocyte viability; CCK-8", "description": "as §1, §2"}, "[5]": {"tested_on": "HaCaT cells", "test": "EdU proliferation assay, HaCaT cells", "format": "cell-based", "conditions": "c = 20 μM; compared to the control group", "description": "EdU fluorescence labeling for cell proliferation of induced T/B lymphocytes (2 × 10^5 cells/well) and HaCaT cells (1 × 10^4 cells/well) of active compounds 10, 19, 23, 32, 38, and 41 (final concentration 10 or 20 μM) was performed as previously reported ([Biram and Shulman 2020]; [Zhao et al. 2024]). EdU (HF488) (the Click-iT™ EdU Flow Cytometry Assay Kit, APExBIO, USA) was added 24 h (final concentration 50 μM, T and B cells) and 4 h (final concentration 10 μM, HaCaT cells) before harvesting the cells. All procedures were performed according to the manufacturer’s instructions for the click reaction. EdU-positive cells and proliferating phase cells were analyzed with a fluorescence microscope."}, "[6]": {"tested_on": "lymphocytes", "test": "Lymphocyte viability (CCK-8)", "format": "cell-based, mouse", "conditions": "c = 2 μM", "description": "as §1, §2"}}}
{"compound": "COc1ccc(O)c2c1C(=O)O[C@@H](C)C2", "note": "[Compound 24, (S)-5-hydroxy-8-methoxy-3-methylisochroman-1-one]", "values": [{"measurement": "IC50", "setting": "[1]", "value": "32.5 ± 2", "unit": "µM"}]}
{"compound": "COC(=O)c1ccc(O)c2c1C[C@@H](C)OC2=O", "note": "[Compound 25, (R)-(−)-5-methoxycarbonylmellein]", "values": [{"measurement": "IC50", "setting": "[1]", "value": "35.1 ± 1.9", "unit": "µM"}]}
{"compound": "COC(=O)c1c[nH]c2ccccc12", "note": "[Compound 28, 1H-indole-3-carboxylic acid methyl ester]", "values": [{"measurement": "IC50", "setting": "[1]", "value": "29.1 ± 1.7", "unit": "µM"}]}
{"compound": "C[C@@H]1Cc2c(C(=O)O)ccc(O)c2C(=O)O1", "note": "[Compound 30, (R)-5-carboxymellein]", "values": [{"measurement": "IC50", "setting": "[1]", "value": "31.2 ± 4.1", "unit": "µM"}]}
{"compound": "CC(C)[C@@H](C)CC[C@@H](C)[C@H]1CC[C@H]2C3=C[C@@H](O)[C@@]4(O)C[C@@H](O)CC[C@]4(C)[C@H]3CC[C@]12C", "note": "[Compound 33, (24S)-ergosta-7-ene-3β,5α,6β-triol]", "values": [{"measurement": "IC50", "setting": "[1]", "value": "33.9 ± 2.8", "unit": "µM"}]}
{"compound": "CC(C)[C@@H](C)/C=C/[C@@H](C)[C@H]1CC[C@H]2C3=CC(=O)[C@@]4(O)C[C@@H](O)CC[C@]4(C)[C@@]3(O)CC[C@]12C", "note": "[Compound 34, 3β,5α,9α-trihydroxy-(22E,24R)-ergosta-7,22-dien-6-one]", "values": [{"measurement": "IC50", "setting": "[1]", "value": "32.2 ± 3.4", "unit": "µM"}]}
{"compound": "c1ccc2c3c([nH]c2c1)CNCC3", "note": "[Compound 36, tryptoline]", "values": [{"measurement": "IC50", "setting": "[2]", "value": "> 20", "unit": "µM"}, {"measurement": "IC50", "setting": "[3]", "value": "16.7 ± 1.8", "unit": "µM"}, {"measurement": "CC50", "setting": "[4]", "value": "> 20", "unit": "µM"}]}
{"compound": "CC(C)CC1NC(=O)C2CCCN2C1=O", "note": "[Compound 37, cyclo-((S)-Pro-(R)-Leu))]", "values": [{"measurement": "IC50", "setting": "[1]", "value": "32 ± 2.2", "unit": "µM"}]}
{"compound": "CCCCCC=C(C(=O)O)C(C)C(=O)O", "note": "(centres unmarked) [Compound 40, 2-hexylidene-3-methylsuccinic acid]", "values": [{"measurement": "IC50", "setting": "[1]", "value": "32.9 ± 3.4", "unit": "µM"}]}
{"compound": "CC(C)C(C)C(OC1OC(CO)C(O)C(O)C1O)C(O)C(C)C1CCC2=C3C=CC4=CC(=O)CCC4(C)C3CCC21C", "note": "[Compound 41, 22,23-dihydroxy-ergosta-4,6,8(14)-trien-3-one-23-β-D-glucopyranoside]", "values": [{"measurement": "IC50", "setting": "[2]", "value": "12.1 ± 1.7", "unit": "µM"}, {"measurement": "IC50", "setting": "[3]", "value": "16.7 ± 1.9", "unit": "µM"}, {"measurement": "CC50", "setting": "[4]", "value": "> 20", "unit": "µM"}, {"measurement": "IC50", "setting": "[1]", "value": "27.7 ± 2.5", "unit": "µM"}, {"measurement": "proliferation rates of HaCaT cells measured by EdU", "setting": "[5]", "value": "significantly reduced"}]}
{"compound": "C[C@@H]1C[C@H]2[C@@H]3CCC4=CC(=O)C=C[C@]4(C)[C@@]3(F)[C@@H](O)C[C@]2(C)[C@@]1(O)C(=O)CO", "note": "[Dex, dexamethasone, reference compound]", "values": [{"measurement": "inhibition at 2 µM", "setting": "[2]; c = 2 μM, ConA-induced T lymphocytes, read-out: Inhibition rate (%) T", "value": "45.2 ± 4.9", "unit": "%"}, {"measurement": "IC50", "setting": "[2]", "value": "1.9 ± 0.1", "unit": "µM"}, {"measurement": "inhibition at 2 µM", "setting": "[3]; c = 2 μM, LPS-induced B lymphocytes, read-out: Inhibition rate (%) B", "value": "68.6 ± 1.5", "unit": "%"}, {"measurement": "IC50", "setting": "[3]", "value": "1 ± 0.05", "unit": "µM"}, {"measurement": "CC50", "setting": "[4]", "value": "0.2 ± 0.04", "unit": "µM"}, {"measurement": "Cell validity (%)", "setting": "[6]", "value": "36.9 ± 2.2", "unit": "%"}]}
{"compound": "CN(Cc1cnc2nc(N)nc(N)c2n1)c1ccc(C(=O)N[C@@H](CCC(=O)O)C(=O)O)cc1", "note": "[MTX, methotrexate, reference compound]", "values": [{"measurement": "IC50", "setting": "[1]", "value": "26.4 ± 1.4", "unit": "µM"}]}
